Results: PMC6017928, “Informing Efforts to Develop Nitroreductase for Amine Production” (Molecules : A Journal of Synthetic Chemistry and Natural …, 2018)

Experiments:
MsPnbA = target: T1, MsPnbA (Mycolicibacterium smegmatis, UniProt A0R6D0); assay: NADH oxidation, initial rates in microtiter plate; Michaelis-Menten fit; type: biochemical; conditions: NADH co-substrate, 25 °C; only normalised kcat/KM used in text
T1 construct: gene nfnB; C-terminal poly-His tag; E. coli BL21(DE3), pET-28a; Ni-NTA, FMN-reconstituted
T1 sequence (A0R6D0 whole entry): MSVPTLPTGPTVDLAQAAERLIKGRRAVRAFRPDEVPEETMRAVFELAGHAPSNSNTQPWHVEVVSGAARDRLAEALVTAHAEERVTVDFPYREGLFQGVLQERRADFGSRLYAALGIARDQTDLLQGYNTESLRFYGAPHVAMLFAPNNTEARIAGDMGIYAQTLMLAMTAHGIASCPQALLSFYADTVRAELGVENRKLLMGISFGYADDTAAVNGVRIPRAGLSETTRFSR

StNfsB = target: T2, StNfsB (Salmonella enterica, UniProt P15888); assay: NADH oxidation at […] nm; Michaelis-Menten fit; type: biochemical; conditions: 0.5 mM NADH, 25 °C
T2 construct: gene nfsB; full length, 217 residues; untagged purification (ammonium sulfate, DEAE, Sephacryl); E. coli BL21(DE3), pET-28a; FMN-reconstituted; homodimer
T2 sequence (P15888 1-217): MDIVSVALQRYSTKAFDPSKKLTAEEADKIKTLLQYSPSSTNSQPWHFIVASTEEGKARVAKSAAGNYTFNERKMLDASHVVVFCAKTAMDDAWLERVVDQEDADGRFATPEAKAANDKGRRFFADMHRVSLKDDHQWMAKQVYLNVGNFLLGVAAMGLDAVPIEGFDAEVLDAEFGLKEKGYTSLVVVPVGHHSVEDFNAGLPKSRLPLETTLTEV

Compound: O=[N+]([O-])c1ccccc1 [compound 1, nitrobenzene]
- NADH oxidation, initial rates in microtiter plate; Michaelis-Menten fit (MsPnbA): dividing by the rate measured for the unsubstituted parent compound: nitrobenzene
- NADH oxidation at 370 nm; Michaelis-Menten fit (StNfsB): dividing by the rate measured for the unsubstituted parent compound: nitrobenzene
